Data published in patent publication US10647680B2, “Urea compound, preparation method therefor and medical use thereof” (Ancureall Pharmaceutical (Shanghai) Co., Ltd., priority 2016, dated 2020).

Columns and labels:
Format in all cases: cell-based
[1] = test system: A549 (KRAS G12S mutant type); experiment: In vitro growth inhibition (GI50), A549; details: Homo sapiens; A549, KRAS Gl2S
Excerpt: (§1) Tumor cell line is an effective cell model for studying the inhibition of tumor cell growth or proliferation in vitro. In the present invention, a representative tumor cell line was selected to determine the cell growth inhibition activity of the present compound. All cell lines used were from ATCC, DSMZ, and the Cell Bank of the Chinese Academy of Sciences. Cell culture conditions and methods were in accordance with the requirements of each cell line. Cells were subcultured in vitro for no more than 3 passages each time, and as required, single-clone purification and identification of cell lines could be carried out.
(§2) The cell culture media used were RPMI1640 (Gibco), MEM (Gibco), McCOY'S5A (Gibco), and IMDM (Gibco). The complete medium was prepared by supplement with 5˜20% fetal calf serum (Gibco), 1% double-antibiotics (10000 units/mL penicillin and 10000 units/mL), 2 mM glutamine or 1 mM sodium pyruvate, respectively.
Human large cell lung cancer cell NCI-H460 (KRAS […] mutant type, ATCC), human non-small cell lung cancer cell line H1299 (NRAS Q61K mutant type, ATCC), human melanoma cell line A375 (BRAF V600E mutant type, Shanghai Cell Bank of Chinese Academy of Sciences), human colon cancer cell line HCT116 (KRAS G13D mutant type, Shanghai Cell Bank, Chinese Academy of Sciences) were cultured in a complete medium of 1×RPMI1640 (10% FBS), respectively. Human non-small cell lung cancer cells A549 (KRAS G12S mutant type, Shanghai Cell Bank, Chinese Academy of Sciences) were cultured in a complete medium of 1× Ham's supplemented with 10% FBS, 1% double antibody, and 2 mM glutamine.
(§3) Adherent cells were digested with 0.25% pancreatin-EDTA (Gibco). The suspension cells were collected by centrifugation. The supernatant was discarded and the cell pellet was resuspended and counted. Different cell concentrations (5˜10×10^4 cells/mL) were prepared according to the growth cycle of each cell line and then seeded on a 96-well plate (Corning), 100 μL/well. The cells were incubated overnight at 37° C., 5% CO2. The compounds were added to the cells on the second day with 2 wells in parallel. The final concentration of organic solvent shall not exceed 1%. The cells were continually incubated for 3 to 5 days, and then subjected to MTT assay.
(§4) The compound of the present invention and the control compound were dissolved in DMSO (Sigma) respectively, with the purity of more than 98%. The compound was stored in a concentration of 10 mM at −20° C. and diluted to 2- or 10-fold series prior to use.
(§5) Dojindo CCK8 reagent kit was used as MTT assay. THERMO […] FC meter was used as microplate reader.
(§6) For adherent cells, culture medium was removed and immediately replaced with the fresh prepared medium which contains 10% CCK8 reagent (100 μL/well). For the suspension cells, CCK8 was directly added to 10% of the final concentration. The cells were continually incubated for 1˜4 h. When a dark yellow color could be observed in the solvent control wells, the absorbance value at OD450 nm was measured and the cell growth rate was calculated according to the following formula: Cell Growth Rate (%)=100*(T−T0)/(C−T0) T=optical density of drug treatment cell well—optical density of blank control well; T0=optical density of cell well before drug treatment—optical density of blank control well; C=optical density of cell well of solvent control group—optical density of blank control well. The concentration value of 50% inhibition of cell growth (GI50) was calculated according to the drug concentration and cell growth rate curve. The experiment was independently repeated 1˜3 times, and subject to biological statistical analysis. 4. Experimental Results
Tumor cell growth inhibition test was performed by selecting representative compounds (compounds 4, 11, 12, 16, 27, 68, 71, 77, 79, 89 and 116 of the present invention). The initial concentration of the compound was 5,000 nM, then it was serially diluted by 2-fold or 10-fold to 0.01 nM. […]

SK-BR-3 (HER2/ErbB2 amp) = experiment: In vitro growth inhibition (GI50), SK-BR-3; details: Homo sapiens, SK-BR3, HER2/ErbB2 amp+
Excerpt: as §1, §2
(§7) Human gastric cancer cell line NCI-N87 (HER2/ErbB2 amp, ATCC), human breast cancer cell line HCC1954 (HER2/ErbB2 amp, ATCC) and ZR-75-30 (HER2/ErbB2 amp, ATCC), human adenocarcinoma cell line AU565 (HER2/ErbB2 amp, ATCC), human lung squamous cell carcinoma cell line NCI-H2170 (HER2/ErbB2 amp, ATCC), human bronchioalveolar adenocarcinoma cell line NCI-H1781 (HER2/ErbB2 Ins G776V,C mutant type, ATCC) were cultured with a 1×RPMI1640 complete medium (10% FBS), respectively. Human lung adenocarcinoma cell line Calu-3 (HER2/ErbB2 amp, ATCC) was cultured with 1×MEM, 10% FBS, 1% double antibody, 1% NEAA (Gibco), 2 mM glutamine and 1 mM sodium pyruvate. The human breast cancer cell line SK-BR-3 (HER2/ErbB2 amp, ATCC) was cultured with a McCOY'S5A complete medium (10% FBS).
as §3, §4, §5, §6
(§8) Tumor cell growth inhibition test was performed by selecting representative compounds (compounds 4, 11, 12, 16, 27, 68, 71, 77, 79, 89 and 116 of the present invention). […]

[2] = test system: NCI-H1781 (HER2/ErbB2 Ins G776V,C mutant type); experiment: In vitro growth inhibition (GI50), NCI-H1781; details: Homo sapiens
Excerpt: as §1, §2, §7, §3, §4, §5, §6, §8

SMILES | GI50 [1] | GI50 (SK-BR-3 (HER2/ErbB2 amp)) | GI50 [2]
COc1ccc2c(c1)ncn2-c1ccc(NC(=O)Nc2cc(C(C)(C)C)n[nH]2)cc1 [Compound 71, 1-(5-tert-butyl-2H-pyrazol-3-yl)-3-[4-(5-methoxyl-benzimidazol-1-yl)-phenyl]-urea] | > 2.5 µM | > 2.5 µM | > 2.5 µM
COCCOc1ccc2c(c1)ncn2-c1ccc(NC(=O)Nc2cc(C(C)(C)C)n[nH]2)cc1 [Compound 77, 1-(5-tert-butyl-2H-pyrazol-3-yl)-3-{4-[5-(2-methoxyl-ethoxyl)-benzimidazol-1-yl]-phenyl}-urea] | > 2.5 µM | > 2.5 µM | > 2.5 µM
CC(C)(C)c1cc(NC(=O)Nc2ccc(-n3cnc4cc(OCCO)ccc43)cc2)[nH]n1 [Compound 79, 1-(5-tert-butyl-2H-pyrazol-3-yl)-3-{4-[5-(2-hydroxy-ethoxyl)-benzimidazol-1-yl]-phenyl]urea] | > 2.5 µM | > 2.5 µM | > 2.5 µM
CC(C)(C)c1cc(NC(=O)Nc2ccc(-n3cnc4cc(OCCN5CCOCC5)ccc43)cc2)[nH]n1 [Compound 89, 1-(5-tert-butyl-2H-pyrazol-3-yl)-3-{4-[5-(2-morpholin-4-yl-ethoxyl)-benzimidazol-1-yl]-phenyl}-urea] | > 2.5 µM | > 2.5 µM | > 2.5 µM
CC(C)(C)c1cc(N)n(C(=O)Nc2ccc(-n3cnc4ccccc43)cc2)n1 [Compound 116, 5-amino-3-tert-butyl-pyrazol-1-carboxylic acid (4-benzimidazol-1-yl-phenyl)-amide] | > 2.5 µM | > 2.5 µM | > 2.5 µM

Other lines, results leading:

GI50 [1] | GI50 (SK-BR-3 (HER2/ErbB2 amp)) | GI50 [2] | SMILES
> 2.5 µM | > 2.5 µM | > 2.5 µM | CC(C)(C)c1cc(NC(=O)Nc2ccc(-n3cnc4cc(O)ccc43)cc2)no1 [Compound 4, 1-(5-tert-butyl-isoxazol-3-yl)-3-[4-(5-hydroxy-benzimidazol-1-yl)-phenyl]-urea]
> 2.5 µM | > 2.5 µM | > 2.5 µM | CC(C)(C)c1cc(NC(=O)Nc2ccc(-n3cnc4cc(OCCO)ccc43)cc2)no1 [Compound 11, 1-(5-tert-butyl-isoxazol-3-yl)-3-{4-[5-(2-hydroxy-ethoxyl)-benzimidazol-1-yl]-phenyl]-urea]
> 2.5 µM | > 2.5 µM | > 2.5 µM | CC(C)(C)c1cc(NC(=O)Nc2ccc(-n3cnc4cc(OCCN5CCOCC5)ccc43)cc2)no1 [Compound 16, 1-(5-tert-butyl-isoxazol-3-yl)-3-{4-[5-(2-morpholin-4-yl-ethoxyl)-benzimidazol-1-yl]-phenyl}-urea]
> 2.5 µM | > 2.5 µM | > 2.5 µM | CC(C)(C)c1cc(NC(=O)Nc2ccc(-n3cnc4ccc(OCCN5CCOCC5)cc43)cc2)no1 [Compound 27, 1-(5-tert-butyl-isoxazol-3-yl)-3-{4-[6-(2morpholin-4-yl-ethoxyl)-benzimidazol-1-yl]-phenyl}-urea]
> 2.5 µM | > 2.5 µM | > 2.5 µM | CC(C)(C)c1cc(NC(=O)Nc2ccc(-n3cnc4ccccc43)cc2)[nH]n1 [Compound 68, 1-(4-benzimidazol-1-yl-phenyl)-3-(5-tert-butyl-2H-pyrazol-3-yl)-urea]
